According to BindingDB's records for doi:10.1124/mol.64.1.143 (Abbott Laboratories, 2003):
Where “and” joins values, the source holds several entries; their conditions need not be identical. Equal values may be shown once.

These molecules were tested against T1, Calcium-activated potassium channel subunit beta (Sus scrofa, UniProt C0KY85).
T1 sequence (C0KY85 whole entry): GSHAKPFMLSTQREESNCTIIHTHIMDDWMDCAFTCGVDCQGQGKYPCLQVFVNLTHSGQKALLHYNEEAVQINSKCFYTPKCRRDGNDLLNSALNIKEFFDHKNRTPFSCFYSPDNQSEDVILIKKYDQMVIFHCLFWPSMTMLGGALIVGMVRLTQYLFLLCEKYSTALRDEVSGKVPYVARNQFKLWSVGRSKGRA

SMILES	Ki
O=C1COCC2=NC3=C([C@H](c4ccc(F)c(I)c4)C12)S(=O)(=O)CC3 (stereo partly drawn) [A-312110]	4.9 nM
CCOc1ccccc1N=C(C[N+](=O)[O-])NC(C)C(C)(C)C (stereo not drawn) [CAS_3038059]	41.3 nM and 16 nM
CC1=NS(=O)(=O)c2cc(Cl)ccc2N1 [NSC_3019]	> 10000 nM
CC(N/C(=N\C#N)Nc1ccncc1)C(C)(C)C (stereo not drawn) [NSC_4826]	251 nM and 104 nM
CCC(C)(C)NC(=NC#N)Nc1cccnc1 [NSC_43345]	20.6 nM and 10.5 nM
CC1(C)Oc2ccc(C#N)cc2C(N2CCCC2=O)C1O (stereo not drawn) [NSC_93504]	542 nM and 157 nM
C[C@](O)(C(=O)Nc1ccc(C(=O)c2ccccc2)cc1)C(F)(F)F [ZD-6169]	630 nM and 451 nM
N#Cc1cccc(C2C3=C(CCCC3=O)N=C3CCCC(=O)C32)c1 (stereo not drawn) [zm244085]	2770 nM and 671 nM
